The record followed here is paper PMC6522510 (Nature Communications, 2019).

What all share (design): species or system AML cell lines (8); Primary HTS, single concentration about 10 uM, Cell Titer Glo viability; log10 luminescence, per cent inhibition relative to cycloheximide control
Common to all, as to settings: 72 h, relative to cycloheximide control, log10 luminescence, inhibitor
On the technique in general: Cellular ATP, detected with luciferase, serves as a proxy for viable cell number.

Experiment [1] concerns CHRF288-11.
In experiment [2] the test system is CMK.
The test system of experiment [3] is CMS.
In experiment [4] the test system is M07e.
The subject of experiment [5] is ML-2.
Experiment [6] concerns MOLM-13.
Experiment [7] relates to MV4-11.
Experiment [8] concerns U937.

Structures can show the parent of a compound that is named as a salt. Where two headings read alike, the source gives them in different places.

With `O=C(O[C@@H]1C[C@@H]2C[C@H]3C[C@H](C1)N2CC3=O)c1c[nH]c2ccccc12` [SJ000565162-1, DOLASETRON MESYLATE], the CHRF288-11 %inh in experiment [1] is -2.852%. In addition, in experiment [2], the CMK %inh came to 0.6983%. Moreover, the CMS %inh in experiment [3] is -2.789%. Further, the M07e %inh in experiment [4] is given as 0.4101%. The ML-2 %inh in experiment [5] was found to be 0.9019%. Further, the MOLM-13 %inh in experiment [6] is recorded as 27.78%. In experiment [7], the MV4-11 %inh is -0.3278%. The U937 %inh in experiment [8] is listed as -1.048%.
Turning to `c1ccc(Cc2nc3ccc(Nc4ncnc5ccccc45)cc3[nH]2)cc1` [SJ000573247-1, C3072/110/1], in experiment [1], the CHRF288-11 %inh is given as 3.355%. Besides, the CMK %inh in experiment [2] is given as -4.013%. For the same molecule, in experiment [3], the CMS %inh came out at 0.8443%. In experiment [4], the M07e %inh is 0.8889%. Also, in experiment [5], the ML-2 %inh worked out at 2.215%. The MOLM-13 %inh in experiment [6] is listed as 6.702%. The MV4-11 %inh in experiment [7] worked out at 1.262%. The U937 %inh in experiment [8] is recorded as -1.321%.
As for `COc1cc2c(cc1Nc1nc(Nc3cccc(F)c3C(N)=O)c3cc[nH]c3n1)N(C(=O)CN1CCN(C(C)C)CC1)CC2` [SJ000573284-1, U23773/22/1], the CHRF288-11 %inh in experiment [1] amounted to 156%. The CMK %inh in experiment [2] is on record as 28.42%. Also, in experiment [3], the CMS %inh stood at 4.776%. The M07e %inh in experiment [4] is -2.07%. For the same molecule, the ML-2 %inh in experiment [5] worked out at 60.74%. In addition, in experiment [6], the MOLM-13 %inh is reported as 110%. Besides, in experiment [7], the MV4-11 %inh was -1.565%. The U937 %inh in experiment [8] was -4.151%.
Consider `C[C@@H](Cn1ncnn1)Nc1ncc2cc(Oc3ccc(F)cc3F)c(=O)n(C)c2n1` [SJ000580957-1], for which the CHRF288-11 %inh in experiment [1] is 0.5625%. Besides, the CMK %inh in experiment [2] was 6.727%. In experiment [3], the CMS %inh stood at 0.2461%. Moreover, in experiment [4], the M07e %inh is listed as 0.2176%. The ML-2 %inh in experiment [5] worked out at 0.7836%. Moreover, in experiment [6], the MOLM-13 %inh was 1.122%. In addition, the MV4-11 %inh in experiment [7] is -1.139%. The U937 %inh in experiment [8] amounted to 0.5561%.
Take `CC(=O)/N=c1/sc(S(N)(=O)=O)nn1C` [SJ000285971-4, METHAZOLAMIDE]: the CHRF288-11 %inh in experiment [1] (CHRF288-11 %inh, 10 µM) is reported as -2.381%. The CMK %inh in experiment [2] (CMK %inh, 10 µM) is given as -8.28%. In experiment [3] (CMS %inh, 10 µM), the CMS %inh is -3.008%. Further, the M07e %inh in experiment [4] (M07e %inh, 10 µM) is reported as -2.489%. In experiment [5] (ML-2 %inh, 10 µM), the ML-2 %inh is recorded as 1.069%. In addition, in experiment [6] (MOLM-13 %inh, 10 µM), the MOLM-13 %inh stood at 1.468%. In experiment [7] (MV4-11 %inh, 10 µM), the MV4-11 %inh is listed as -0.9248%. Besides, the U937 %inh in experiment [8] (U937 %inh, 10 µM) is reported as -0.6609%.
With `O=C1NC(=O)/C(=C\c2ccc3nccnc3c2)S1` [SJ000534768-4, PI 3-K-GAMMA-INHIBITOR | 648450-29-7 | AS-605240 | AS605240 | PI 3-KY INHIBITOR], the CHRF288-11 %inh in experiment [1] (CHRF288-11 %inh, 10 µM) is recorded as -3.707%. For the same molecule, the CMK %inh in experiment [2] (CMK %inh, 10 µM) was 2.377%. In addition, in experiment [3] (CMS %inh, 10 µM), the CMS %inh came out at 2.882%. Further, the M07e %inh in experiment [4] (M07e %inh, 10 µM) came to 2.923%. Further, the ML-2 %inh in experiment [5] (ML-2 %inh, 10 µM) came to 1.156%. The MOLM-13 %inh in experiment [6] (MOLM-13 %inh, 10 µM) is 1.092%. Further, in experiment [7] (MV4-11 %inh, 10 µM), the MV4-11 %inh is -0.9615%. Moreover, in experiment [8] (U937 %inh, 10 µM), the U937 %inh is recorded as 0.2634%.
With `CCS(=O)(=O)c1ccc(OC)c(Nc2ncc(-c3ccccc3Cl)o2)c1` [SJ000573291-1, U15747/47/1], the CHRF288-11 %inh in experiment [1] is listed as -4.64%. Further, the CMK %inh in experiment [2] is given as -1.56%. The CMS %inh in experiment [3] is given as -1.399%. The M07e %inh in experiment [4] was -1.838%. In addition, in experiment [5], the ML-2 %inh is given as -1.239%. In addition, the MOLM-13 %inh in experiment [6] was -0.8597%. Besides, in experiment [7], the MV4-11 %inh is recorded as 15.16%. Further, the U937 %inh in experiment [8] worked out at 1.267%.
On to `CS(=O)(=O)CCN(CC#N)Cc1ccc(-c2ccc3ncnc(Nc4ccc(OCc5cccc(F)c5)c(Cl)c4)c3c2)o1` [SJ000573016-1, U15872/6/1], for which the CHRF288-11 %inh in experiment [1] was -2.462%. Further, in experiment [2], the CMK %inh amounted to 0.1592%. For the same molecule, in experiment [3], the CMS %inh stood at 3.038%. For the same molecule, the M07e %inh in experiment [4] came out at 3.973%. Further, in experiment [5], the ML-2 %inh was -0.1489%. The MOLM-13 %inh in experiment [6] came to 0.2014%. For the same molecule, the MV4-11 %inh in experiment [7] is -0.4968%. Besides, the U937 %inh in experiment [8] worked out at 1.155%.
Regarding `CCn1c(-c2nonc2N)nc2cncc(C(=O)NCCNC)c21` [SJ000573046-1, FIDE/U1002/66/2], the CHRF288-11 %inh in experiment [1] came out at 15.2%. Moreover, the CMK %inh in experiment [2] is reported as 39.87%. In addition, in experiment [3], the CMS %inh is 12.48%. Further, in experiment [4], the M07e %inh was found to be 12.62%. Besides, in experiment [5], the ML-2 %inh is given as 17.45%. In addition, in experiment [6], the MOLM-13 %inh is 9.392%. Besides, in experiment [7], the MV4-11 %inh is recorded as 47.15%. In addition, in experiment [8], the U937 %inh is 25.48%.
As to `COC(=O)Nc1nc2ccc(Oc3ccc(NC(=O)Nc4cc(C(F)(F)F)ccc4F)cc3)cc2s1` [SJ000573286-1, T277/77/2], the CHRF288-11 %inh in experiment [1] is recorded as 2.804%. For the same molecule, the CMK %inh in experiment [2] was determined as 4.078%. Besides, the CMS %inh in experiment [3] is -2.124%. The M07e %inh in experiment [4] is listed as 9.62%. Besides, in experiment [5], the ML-2 %inh came to 3.773%. Also, the MOLM-13 %inh in experiment [6] was 27.47%. Besides, in experiment [7], the MV4-11 %inh is reported as 23.01%. Further, in experiment [8], the U937 %inh is reported as -3.236%.
On to `CCCCCCCN(CC)CCCC(O)c1ccc(NS(C)(=O)=O)cc1` (centres unmarked) [SJ000556760-1, IBUTILIDE FUMARATE], for which the CHRF288-11 %inh in experiment [1] turned out to be 6.024%. Further, the CMK %inh in experiment [2] came to 2.977%. For the same molecule, in experiment [3], the CMS %inh came out at 0.3403%. In addition, in experiment [4], the M07e %inh stood at 2.78%. Also, in experiment [5], the ML-2 %inh was -1.379%. Also, in experiment [6], the MOLM-13 %inh is recorded as 2.626%. Moreover, in experiment [7], the MV4-11 %inh is listed as 3.1%. The U937 %inh in experiment [8] is reported as 0.6889%.
Turning to `COc1cccc(C2=C(c3cn(C)c4cccc(OC)c34)C(=O)NC2=O)c1` [SJ000581093-1], the CHRF288-11 %inh in experiment [1] was 15.23%. The CMK %inh in experiment [2] was found to be 64.38%. In addition, the CMS %inh in experiment [3] is on record as 2.878%. Moreover, the M07e %inh in experiment [4] was 15.31%. For the same molecule, in experiment [5], the ML-2 %inh was 1.141%. In experiment [6], the MOLM-13 %inh came out at 14.52%. Also, in experiment [7], the MV4-11 %inh is given as 0.2916%. Also, the U937 %inh in experiment [8] amounted to 7.981%.
On to `Cn1c(=O)c(Oc2ccc(F)cc2F)cc2cnc(NC(CO)CO)nc21` [SJ000581024-1], for which the CHRF288-11 %inh in experiment [1] is recorded as -0.0002567%. Further, the CMK %inh in experiment [2] is reported as -1.172%. Also, in experiment [3], the CMS %inh was -1.976%. Also, the M07e %inh in experiment [4] amounted to 1.393%. Also, the ML-2 %inh in experiment [5] is on record as 0.9662%. Also, the MOLM-13 %inh in experiment [6] is recorded as 0.3413%. The MV4-11 %inh in experiment [7] was found to be 1.357%. For the same molecule, the U937 %inh in experiment [8] turned out to be 3.277%.
For the molecule `c1cnn2ncc(-c3ccnc(NCCCN4CCOCC4)n3)c2c1` [SJ000573132-1, U14929/199/1], in experiment [1], the CHRF288-11 %inh was 17.57%. Moreover, the CMK %inh in experiment [2] is listed as 3.496%. Besides, the CMS %inh in experiment [3] came out at 12.25%. In experiment [4], the M07e %inh was 4.031%. Besides, the ML-2 %inh in experiment [5] amounted to 4.815%. The MOLM-13 %inh in experiment [6] is 36.05%. Moreover, in experiment [7], the MV4-11 %inh is given as 15.28%. For the same molecule, in experiment [8], the U937 %inh is given as 21.78%.
In the case of `C[C@H](CC[C@@H]1OC1(C)C)[C@H]1CC[C@H]2[C@@H]3CC=C4C[C@@H](O)CC[C@]4(C)[C@H]3CC[C@]12C` [SJ000561052-1, 24(S),25-EPOXYCHOLESTEROL], the CHRF288-11 %inh in experiment [1] was determined as 7.379%. Besides, in experiment [2], the CMK %inh turned out to be 11.77%. Also, the CMS %inh in experiment [3] turned out to be 1.576%. Further, the M07e %inh in experiment [4] is 0.1627%. Besides, the ML-2 %inh in experiment [5] is on record as -2.235%. Moreover, the MOLM-13 %inh in experiment [6] was -3.183%. Also, the MV4-11 %inh in experiment [7] is -1.379%. The U937 %inh in experiment [8] is -2.032%.
`CN(c1ccc(NC(=O)Nc2ccc(OC(F)(F)F)cc2)cc1)c1ccnc(Nc2cccc(S(N)(=O)=O)c2)n1` [SJ000573281-1, U17983/20/3]: the CHRF288-11 %inh in experiment [1] is listed as 54%. In experiment [2], the CMK %inh is reported as 57.59%. Besides, the CMS %inh in experiment [3] is 4.771%. Further, the M07e %inh in experiment [4] is recorded as 21.34%. Further, the ML-2 %inh in experiment [5] is given as 11.59%. The MOLM-13 %inh in experiment [6] was 77.33%. Besides, the MV4-11 %inh in experiment [7] turned out to be 82.54%. Moreover, in experiment [8], the U937 %inh came out at 20.62%.
